In publication PMC10138554, “Insights into the Microbicidal, Antibiofilm, Antioxidant and Toxicity Profile of New O-Aryl-Carbamoyl-Oxymino-Fluorene Derivatives” (International Journal of Molecular Sciences, 2023):
Values after ≈ are worked out from the molar mass of the structure shown.

What was measured:
P. aeruginosa ATCC 27892 = test: Flow cytometry (FCM) membrane depolarization, DiBAC4(3); type: cell-based, Pseudomonas aeruginosa; conditions: subinhibitory concentration tested 2.5 mg/mL, DiBAC4, 18–24 h
Description: The investigation of potential mechanisms of antimicrobial action by flow cytometry (FCM) was performed on microbial cultures obtained after 18–24 h of microbial cell incubation in the presence of subinhibitory concentrations of the analyzed compounds. Thus, microbial suspensions with a density of approximately 10^6 CFU/mL were prepared in sterile saline phosphate buffer from exponentially growing microbial cultures, obtained on a solid culture medium. Subinhibitory concentrations of the compounds were prepared in Muller–Hinton liquid culture medium and inoculated with an equal amount of microbial suspension and incubated for 18–24 h at 37 °C.
Microbial suspensions inoculated in a liquid medium were used as growth control. After incubation, the DiBAC4 fluorochrome solution [bis-(1,3-dibutylbarbituric acid) trimethinoxonol] Invitrogen/Life Technologies, Carlsbad, was added (0.5 μg/mL).
Fluorescence intensity (FI) was measured with an Accuri C6 plus flow cytometer in the FITC fluorescence channel. Growth control was used to locate the microbial cell population for fluorescence measurements. DiBAC4 dye was used to detect changes in the microbial membrane potential. […] A twofold increased fluorescence intensity (median fluorescence intensity = MFI) was considered to correspond to the depolarized microbial cells. For each subinhibitory concentration, a coloring index (CI) was calculated which represents the ratio of fluorescence intensity (FI) of treated versus untreated cells.

[1] = Toxicity on the Artemia franciscana Kellog crustacean species (lethality of nauplii); type: in vivo; conditions: Artemia franciscana Kellog (brine shrimp nauplii), in vivo, other: nauplii placed in contact with the test suspensions, four-parameter logistic model
Description: The oocysts (Great Salt Lake, USA) provided by S.K. Trading were grown on artificial seawater medium (Coral Marine, Grotech), dissolved in distilled water with a few minutes of sonication, at 30 g/L concentration. The test was carried out in a 24-well plate, using three replicates. Because of their low solubility, the compounds 1a–d were suspended in the culture medium using sodium alginate (0.045%) (also used a negative control), the testing being carried out at the solubility limit. The concentrations 100, 50, 25, 12.5 and 6.2 μg/mL used for each substance were obtained by successive dilutions starting from the initial suspension. Between 10 and 15 nauplii per well were collected and placed in contact with the test suspensions (1.5 mL/well). All nauplii, dead or alive, were counted and recorded within 24 h of being placed in contact with the tested suspensions. The non-linear modeling of the concentration-lethality relationship was achieved through a four-parameter logistics model (4PL), implemented in several robust variants for estimating parameters in the R package “dr4pl” [78].

Row | Compound | staining index value (SI) (P. aeruginosa ATCC 27892) | LC50 at 24 h [1] [mg/L]
1 | O=C(Nc1ccccc1)ON=C1c2ccccc2-c2ccccc21 [Compound 1a, 9-(phenylcarbamoyloxymino)fluoren] | 6.68 | –
2 | Cc1cccc(NC(=O)ON=C2c3ccccc3-c3ccccc32)c1 [Compound 1b, 9-((3-methyl-phenyl)carbamoyloximino)fluoren] | 6.5 | –
3 | O=C(Nc1cccc(Cl)c1)ON=C1c2ccccc2-c2ccccc21 [Compound 1c, 9-((3-chloro-phenyl)carbamoyloxymino)fluoren] | 2.38 | –
4 | O=C(Nc1ccc(Cl)c(Cl)c1)ON=C1c2ccccc2-c2ccccc21 [Compound 1d, 9-((3,4-dichloro-phenyl)carbamoyloxymino)fluoren] | 20.45 | 14.6 (≈ 38.2 µM)
